In patent US20020115594A1, “Peptide antagonists at glutamate and NMDA receptors” (priority 1993, published 2002):
Ends that are not written are not given here.

Key:
[1] = test system: GnRH secretion by hypothalamic explants; test: In vitro GnRH secretion by hypothalamic explants induced by veratridine (static incubation, GnRH radioimmunoassay); assay type: cell-based, rat
Method: (§1) The hypothalamic explants of male Wistar rats were studied individually using a static incubation system described earlier (1-3, 9). The total incubation volume of each chamber (0.5 ml) was sampled and renewed every 7.5 min. Using these fractions, the radioimmunoassay of GnRH was performed as described in detail previously (1, 2). The secretion of GnRH was studied either in the absence of any secretagogue or during the 7.5-min exposure to 5.10^−5 M of veratridine, a depolarizing agent opening the Na^+ channel, or 5.10^−2 M of kainate or N-methyl-D, L-aspartate (NMA) which are agonists of distinct subtypes of glutamate receptors. All these products were bought from Sigma, St Louis, Mo. At 25 and 50 days, veratridine was used repeatedly at 37.5-min intervals. At 15 days, veratridine was used at 52.5-min intervals, i.e. beyond the period of refractoriness caused by the inhibitory autofeedback of GnRH(11). The secretory response of GnRH was calculated as the difference between the concentration measured immediately before and during exposure to the secretagogue.
(§2) We studied the effects of the in-vitro exposure to increasing concentrations of recombinant hIGF-I (Kabi-Pharmacia, Stockholm, Sweden) or its two subproducts, (1-3)IGF-I (Peninsula, Merseyside, England) and (4-70)IGF-I (Gropep, Adelaide, Australia). We also studied the effects of other peptides. The GnRH fragments and analogs included (1-5) GnRH (UCB, Brussels, Belgium), (2-10)GnRH (Sigma, St Louis, Mo., USA) and (1-9)GnRHa (D-TRP^6-PRO^9-N-Ethylamide GnRH) a GnRH agonist kindly provided by Dr J Rivier (The Salk Institute, California, USA). The bovine Proinsulin and its subproducts included the C-peptide of insulin and insulin itself (Novo-Nordisk, Copenhagen, Denmark). Finally, the GRF-related peptides included (1-43) rat GRP (Bachem, Bubendorf, Switzerland), (1-37) human GRF (Peninsula, Merseyside, England) and (1-29)human GRF (Kabi Pharmacia, Stockholm, Sweden). AP-5 (DL-2-amino-5-phosphonovaleric acid, Sigma), a selective antagonist at NMDA receptors and DNQX (6,7-dinitro-quinoxaline-2,3-dione, Tocris Neuramin, Buckhurst Hill, United Kingdom) a selective antagonist at kainate receptors, were also used. The different peptides or antagonists were used for 15 min, i.e. the 7.5-min fraction before and during exposure to veratridine. We also studied the effects of a single s.c. injection of IGF-I or its subproducts in 15 or 50 day-old rats. Then, the animals were sacrificed and the hypothalamic explants studied 25 min after the injection, this interval being required to obtain plasma concentrations of IGF-I sufficient to affect protein metabolism (A. Skottner, personal communication). At that time, the serum was collected for the assay of IGF-I using a method described elsewhere (15) and testosterone was measured as well using a standard RIA (Sorin Biomedica). The concentration of the studied substances resulting in 50% inhibition of the GnRH secretory response (IC50) was calculated as described earlier (3, 9) and the data were compared by covariance analysis. The occurrence of significant GnRH secretory pulses was determined using the pulsar program (2, 3).
FIG. 1. In vitro effects of IGF-I-related peptides on GnRH secretion by hypothalamic explants at 15, 25 and 50 days. GnRH secretory response to depolarizing episodes (veratridine 50 μM for 7.5 min) was studied repeatedly at intervals of 52.5 min at 15 days or 37.5 min at 25 and 50 days. Such study was performed in control conditions or in the presence of increasing concentrations of IGF-I and subproducts, (4-70)IGF-I and (1-3)IGF-I, as well as AP-5, a competitive antagonist at NMDA receptors. Each experiment was preceded and followed by a veratridine challenge in control conditions.

NMDA receptors = test: In vitro GnRH secretion by hypothalamic explants induced by NMA; assay type: cell-based, rat; conditions: 10^−6 M; explants of 50-day-old male rats; FIG. 8
Method: as §1, with “At 25 and 50 days, veratridine was used repeatedly at 37.5-min intervals. At 15 days, veratridine was used at 52.5-min intervals, i.e. beyond the period of refractoriness caused by the inhibitory autofeedback of GnRH(11).” left out
(§3) We studied the effects of the in-vitro exposure to increasing concentrations of recombinant hIGF-I (Kabi-Pharmacia, Stockholm, Sweden) or its two subproducts, (1-3)IGF-I (Peninsula, Merseyside, England) and (4-70)IGF-I (Gropep, Adelaide, Australia). […] At that time, the serum was collected for the assay of IGF-I using a method described elsewhere (15) and testosterone was measured as well using a standard RIA (Sorin Biomedica). […] The occurrence of significant GnRH secretory pulses was determined using the pulsar program (2, 3). […]

[2] = test system: GnRH secretion by hypothalamic explants; test: In vitro GnRH secretion by hypothalamic explants induced by veratridine (static incubation, GnRH radioimmunoassay); assay type: cell-based, rat; remark: listed apart in the source
kainate receptors = test: In vitro GnRH secretion by hypothalamic explants induced by kainate; assay type: cell-based, rat; conditions: 10^−6 M; explants of 50-day-old male rats; FIG. 8
Method: as §1, with “At 25 and 50 days, veratridine was used repeatedly at 37.5-min intervals. At 15 days, veratridine was used at 52.5-min intervals, i.e. beyond the period of refractoriness caused by the inhibitory autofeedback of GnRH(11).” left out
as §3

glutamate receptors = test: Displacement of tritiated glutamate from hypothalamic membrane preparations; assay type: binding; conditions: FIG. 9
From the text: Hypothalmic membrane preparations are used to study the displacement of tritiated glutamate binding in the presence of different compounds. Glutamate is able to displace the binding of the tracer at relatively low 10^−6 to 10^−8 concentrations. […] This is because the affinity of tritiated glutamate for the NMDA receptors is less than for the other subtypes of glutamate receptors.

[3] = test system: GnRH secretion by hypothalamic explants; test: Ex vivo veratridine-induced GnRH secretion by hypothalamic explants after in-vivo s.c. injection; set-up: species or system rat
From the text: as §2, with “3). […]” for “3).”

[4] = test system: GnRH secretion by hypothalamic explants; test: Spontaneous pulsatile secretion of GnRH from hypothalamic explants after s.c. injection; assay type: in vivo, rat; conditions: s.c. injection of 0.1 mg/kg; 50-day-old rats; data not shown
From the text: as §2, with “The different peptides or antagonists were used for 15 min, i.e. the 7.5-min fraction before and during exposure to veratridine. We also studied the effects of a single s.c. injection of IGF-I or its subproducts in 15 or 50 day-old rats. Then, the animals were sacrificed and the hypothalamic explants studied 25 min after the injection, this interval being required to obtain plasma concentrations of IGF-I sufficient to affect protein metabolism (A. Skottner, personal communication).” left out, “The concentration of the studied substances resulting in 50% inhibition of the GnRH secretory response (IC50) was calculated as described earlier (3, 9) and the data were compared by covariance analysis.” left out, “3). […]” for “3).”

[5] = test system: brain hypoxic-ischemic injury; conditions: reported in refs 22, 23; cited from earlier work
[6] = in vitro, explants of 50-day-old rats, FIG. 7

For `NC(CCCP(=O)(O)O)C(=O)O` (racemic) [AP-5, DL-2-amino-5-phosphonovaleric acid, reference compound], the “effect on veratridine-induced secretion of GnRH” value ([1]; in vitro, explants at 15, 25 and 50 days) was “dose-related suppression” and the “effect on secretion of GnRH induced by NMA” value (NMDA receptors) was “inhibitory effects”.

With `CNC(CC(=O)O)C(=O)O` (racemic) [NMA, N-methyl-D, L-aspartate, reference compound] the “GnRH secretion induced by veratridine 5.10^−5 M” value ([2]; +NMA 5.10^−4 M alone, 50-day-old male rats, mean, n = 6) was 98 % of controls.

In the case of `O=C1N=c2cc([N+](=O)[O-])c([N+](=O)[O-])cc2=NC1=O` [DNQX, 6,7-dinitro-quinoxaline-2,3-dione], the “effect on kainate-induced secretion of GnRH” value (kainate receptors) is reported as “inhibitory effects”.

In the case of `N[C@@H](CCC(=O)O)C(=O)O` [Glutamate], the “concentrations displacing the binding of the tracer” value (glutamate receptors) is reported as 10^−6 to 10^−8.

In the case of “(1-5)GnRH: peptide with a N-terminal glutamic acid which results from the degradation of GnRH in the hypothalamus (QHWSY; ends and bridges not checked; UniProt P01148 24-28, looked up, fragment)”, the “effect on veratridine-induced secretion of GnRH” value ([1]; FIG. 6) is reported as “inhibited” and the “displacement of tritiated glutamate binding” value (glutamate receptors) is reported as “act as competitors of glutamate binding”.

For “(1-29)GRF: human GRF subproduct retaining GH-releasing activity (YADAIFTNSYRKVLGQLSARKLLQDIMSR; Somatoliberin; UniProt P01286 32-60, looked up, fragment) [reference compound]”, the “effect on veratridine-induced secretion of GnRH” value [1, 6] was “does not affect”.

With “(1-37)GRF: human GRF subproduct, minor physiological form with a C-terminal glutamic acid (YADAIFTNSYRKVLGQLSARKLLQDIMSRQQGESNQE; Somatoliberin; UniProt P01286 32-68, looked up, fragment)” the “effect on veratridine-induced secretion of GnRH” value [1, 6] was “dose-related inhibition”.

In the case of “(1-43)GRF: full (1-43) sequence of rat Growth Hormone-Releasing Factor (HADAIFTSSYRRILGQLYARKLLHEIMNRQQGERNQEQRSRFN; Somatoliberin; UniProt P09916 31-73, looked up) [reference compound]”, the “effect on veratridine-induced secretion of GnRH” value [1, 6] is reported as “dose-related inhibition”.

For “D-TRP^6-PRO^9-N-Ethylamide GnRH [(1-9)GnRHa, reference compound]”, the “effect on veratridine-induced secretion of GnRH” value ([1]; FIG. 6) was “can be inhibited” and the IC50 ([1]; FIG. 6, read-out: IC50, inhibition of veratridine-induced GnRH secretion) was 200 pM.

In the case of “IGF-I: recombinant hIGF-I (Kabi-Pharmacia)”, the “effect on GnRH secretion at very high concentrations” value ([1]; 10^−4 and 10^−3 M, explants at 15 days, FIG. 4) is reported as “inhibition of GnRH secretion”, the “effect on veratridine-induced secretion of GnRH” value ([1]; in vitro, explants at 25 and 50 days) is reported as “dose-related inhibition” and the “effect on veratridine-induced secretion of GnRH” value ([1]; in vitro, explants at 15 days) is reported as “not affected”. The “inhibitory effect on GnRH secretion in the presence of peptidase inhibitors” value ([1]; three different peptidase inhibitors, FIG. 5) was “can be prevented”, the “period of suppression of the GnRH secretory response to veratridine” value ([3]; s.c. 0.05-0.2 mg/kg, directly related to dose, 50-day-old animals) was 47.5 to 107.5 min and the “ex vivo effectiveness on veratridine-induced GnRH secretion at 15 and 50 days” value ([3]; s.c. injection, higher doses at 15 days, FIG. 3) was “only effective at 50 days”. The “period of marked inhibition of in-vitro GnRH secretion in response to veratridine” value ([3]; single s.c. injection of 0.5 mg/kg, 50-day-old animals) was “up to 167.5 min”, the “period for which spontaneous pulsatile secretion of GnRH is abolished” value [4] was about 2 h and the “displacement of tritiated glutamate binding” value (glutamate receptors) was “act as competitors of glutamate binding”. The “effect on GnRH secretion from explants of 30-day-old female rats” value ([2]; data not shown) was “inhibited” and the “protection against brain hypoxic-ischemic injury” value [5] was “can protect”.

For insulin: bovine insulin, the “effect on veratridine-induced secretion of GnRH” value [1, 6] was “no effects”.

B1: Proinsulin: bovine Proinsulin (protein, UniProt P01317 25-105, looked up)
pro-form: FVNQHLCGSHLVEALYLVCGERGFFYTPKARREVEGPQVGALELAGGPGAGGLEGPPQKRGIVEQCCASVCSLYQLENYCN
modifications: pro-form
In the case of B1, the “effect on veratridine-induced secretion of GnRH” value [1, 6] is reported as “dose-related suppression”.
